Assays:
ERK = ERK activation (phosphorylation) immunoblot in HUVEC; type: cell-based, human; conditions: Example 8, medium No. 11: 2-Cl—C.OXT-A 100 μmol/l
[1] = tested on: Human umbilical vein endothelial cells (HUVEC); experiment: Measurement of cell migration (CytoSelect 24-well Cell Migration Assay); type: cell-based
Procedure: Measurement of cell migration was carried out in the following manner using CytoSelect 24-well Cell Migration Assay (CBA-100, Cell Biolabs) kits. First, sample solutions were prepared by dissolving 2-Cl—C.OXT-A in physiological saline so as to achieve predetermined concentrations (0.1, 0.5, 1 mmol/l). Then, the sample solutions containing 2-Cl—C.OXT-A at the predetermined concentrations respectively were added to HuMedia-EB2 media (Kurabo) to which 2 v/v % inactivated fetal bovine serum (FBS) had been added so that their concentrations became 10 v/v %. Thus, cell migration media were prepared. The final concentrations of 2-Cl—C.OXT-A in the cell migration media were 10, 50, and 100 μmol/l.
Human umbilical vein endothelial cells (HUVEC) were suspended in a HuMedia-EB2 medium (Kurabo) to which 2 v/v % inactivated fetal bovine serum (FBS) had been added at a density of 0.5×10^6 cells/ml. Thus, a cell suspension was prepared. 300 μl of the cell suspension was added to an upper compartment (i.e., in an insert) of a polycarbonate membrane plate provided in the kit, and 500 μl of the cell migration medium was added to a lower compartment (i.e., in a well) of the plate. Then, the cells were cultured at 37° C. for 24 hours. After the completion of the culture, the membrane on the inner bottom face of the insert was wiped out with a cotton swab to remove the cells on the membrane. Then, cells having migrated to the rear face of the membrane (the membrane on the outer bottom face of the insert) were stained using a staining solution provided in the kit, and then photographed from below the insert. After the photographing, the dye was extracted with an extracting solution provided in the kit, and the absorbance at 560 nm was measured using a microplate reader. As a control, a HuMedia-EB2 medium (Kurabo) to which 2 v/v % inactivated fetal bovine serum (FBS) had been added was used instead of the cell migration medium to carry out the culture, and the cells were stained and the absorbance was measured in the same manner as in the above. Then, using the above equation (I), the relative absorbance in the culture using each of the cell migration media containing 2-Cl—C.OXT-A at the predetermined concentrations was calculated.

p38 = p38 activation (phosphorylation) immunoblot in HUVEC; type: cell-based, human; conditions: 100 μmol/l; 0 to 60 minutes
Procedure: First, to a HuMedia-EB2 medium (Kurabo) to which 2 v/v % inactivated fetal bovine serum (FBS) had been added, 2-Cl—C.OXT-A was added so that its concentration became 100 μmol/l. Thus, a medium was prepared. Using the medium, human umbilical vein endothelial cells (HUVEC) were cultured for predetermined periods (0, 10, 20, 30, 45, and 60 minutes).
After the culture, cells were collected. The collected cells were lysed by adding a cell lysis buffer (SDS-lysis buffer) thereto, and heat-denatured at 95° C. for 5 minutes. The solubilized protein in an amount corresponding to 5 v/v % of the heat-denatured cell lysate was subjected to electrophoresis using 10% SDS-polyacrylamide gel, whereby the solubilized protein was transferred onto a nitrocellulose membrane (Amersham Biosciences). […]
The enzymes were visualized with SuperSignal (registered trademark) West Pico Chemiluminescent Substrate (Pierce), and detected by being exposed to RX—U X-ray film (FUJIFILM Corporation). From the detected bands, the respective phosphoenzymes and total enzymes were quantified using an NIH image software. Furthermore, the relative value (−fold) of each phosphoenzyme was calculated by substituting the measured value of the phosphoenzyme into the following equation (III).

[2] = tested on: Human umbilical vein endothelial cells (HUVEC); experiment: Measurement of cell proliferation (Cell Counting Kit-8); type: cell-based; conditions: HUVEC, 48 hours
Procedure: Sample solutions were prepared by dissolving 2-Cl—C.OXT-A in physiological saline so as to achieve predetermined concentrations (0.5, 1, 5, 10, 50, 100 mmol/l). Then, the sample solutions containing 2-Cl—C.OXT-A at the predetermined concentrations respectively were added to HuMedia-EB2 media (Kurabo) to which 2 v/v % inactivated fetal bovine serum (FBS) had been added so that their concentrations became 10 v/v %. Thus, cell proliferation media were prepared. The final concentrations of 2-Cl—C.OXT-A in the cell proliferation media were 50, 100, 500 μmol/l, 1, 5, and 10 mmol/1.
Human umbilical vein endothelial cells (HUVEC) suspended in a HuMedia-EG2 medium (Kurabo) were inoculated into each of gelatin-coated wells of a 96-well plate at a density of 3×10^3 cells per well, and cultured for 24 hours. 24 hours after the start of the culture, the medium was removed, and 100 μl of the cell proliferation medium was added to each well. The cells were cultured for another 48 hours. After the completion of the culture, a color reaction was caused using a Cell Counting Kit-8 (Dojindo Laboratories). 2 hours after the start of the reaction, the absorbance at 450 nm was measured using a microplate reader. As a control, a HuMedia-EB2 medium (Kurabo) to which 2 v/v % inactivated fetal bovine serum (FBS) had been added was used instead of the cell proliferation medium to carry out the culture, and a color reaction was caused and the absorbance was measured in the same manner as in the above. Then, using the following equation (I), the relative absorbance in the culture using each of the cell proliferation media containing 2-Cl—C.OXT-A at the predetermined concentrations was calculated.

SMILES: Nc1nc(Cl)nc2c1ncn2C1CC(CO)C1CO (stereo not drawn) [2-Cl—C.OXT-A, 6-amino-2-chloro-9-[trans-trans-2,3-bis(hydroxymethyl)cyclobutyl]purine]
- pERK (ERK): increased
- stained area (cell migration photographs) ([1]; final concentration 10 μmol/l to 100 μmol/l, 24 hours, versus control): larger than that in the control
- relative absorbance (cell migration) ([1]; final concentration 50 μmol/l): 2.1
- cell migration promoting-activity compared with VEGF ([1]; final concentration 50 μmol/l, VEGF 10 ng/ml): higher than that in Comparative Example 7
- relative absorbance (cell migration) ([1]; final concentration 10 to 100 μmol/l, versus control): higher than that of the control
- migration promoting-activity compared with physiological saline ([1]; final concentrations 50 and 100 μmol/l, p<0.02): significantly higher than that in Comparative Example 8
- amount of pp 38 (p38): not changed
- relative absorbance (cell proliferation) ([2]; final concentration 50 μmol/l to 1 mmol/l, relative to control): higher than 1
- cell proliferation ([2]; final concentration 5 mmol/l or higher): suppressed in a concentration-dependent manner

— US20110230659A1, “CYCLOBUTYL PURINE DERIVATIVE, ANGIOGENESIS PROMOTING AGENT, LUMEN FORMATION PROMOTING AGENT, NEUROCYTE GROWTH PROMOTING AGENT, AND DRUG” (NATIONAL UNIVERSITY CORPORATION KAGAWA UNIVERSITY, priority 2008, published 2011)
